This is an account of results in article PMC11970527 (RSC Chemical Biology, 2025).

Structures are written as SMILES. Where two headings read alike, the source gives them in different places.

Data set [1] concerns the target T1, AvrA (Salmonella enterica subsp. enterica serovar Typhimurium, UniProt E8XKZ3).
T1 sequence (E8XKZ3 1-301): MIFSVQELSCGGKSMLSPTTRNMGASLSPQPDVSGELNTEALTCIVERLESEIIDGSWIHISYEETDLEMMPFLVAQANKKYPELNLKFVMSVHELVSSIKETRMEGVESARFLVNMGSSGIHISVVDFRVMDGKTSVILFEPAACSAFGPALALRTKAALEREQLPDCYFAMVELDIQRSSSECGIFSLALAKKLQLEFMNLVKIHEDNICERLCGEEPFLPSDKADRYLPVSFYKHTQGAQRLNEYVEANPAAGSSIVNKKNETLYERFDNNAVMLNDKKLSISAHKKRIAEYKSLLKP
The following applies: read-out: Kd previously described; cited from earlier work.

The subject of the next data set is VopA. The experiment in a line: differential scanning fluorimetry. It is filed as binding, Vibrio parahaemolyticus. The settings on record: DSF, nonlinear curve fit, n = 5.
The nature of data set [2]: Precipitation Assay with CaCl2. It counts as physicochemical. The settings on record: 4 mM ligand, pH 7.4, 100 mM tris.
The target of the next data set is TcdB CPD (Clostridioides difficile, UniProt P18177). The experiment in a line: isothermal calorimetry. It counts as binding. A general note: ITC needs no label: the signal is the heat of the interaction.
Sequence of TcdB CPD (P18177 543-799 limits assumed): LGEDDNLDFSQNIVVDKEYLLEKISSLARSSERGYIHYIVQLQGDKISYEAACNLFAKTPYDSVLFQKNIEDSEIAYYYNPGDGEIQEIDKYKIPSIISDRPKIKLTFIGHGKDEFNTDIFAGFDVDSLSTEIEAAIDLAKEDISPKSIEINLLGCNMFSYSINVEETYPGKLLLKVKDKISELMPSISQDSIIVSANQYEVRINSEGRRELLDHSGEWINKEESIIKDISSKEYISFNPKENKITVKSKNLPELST
The next data set relates to phytase-4. The experiment in a line: stability against phytase-4 by 31P NMR. The settings on record: 4 mM ligand, over 32 h, 100 mM acetate buffer pH 5. It counts as in vitro ADME, wheat.
In data set [3] the target is T1, AvrA. The experiment in a line: isothermal calorimetry. It is filed as binding.
The conditions of data set [4]: pH 7.4; cited from earlier work.

One may read the Kd as the constant that tells how readily two partners part at equilibrium. As a reminder, the koff is the first-order rate constant of dissociation. A higher koff goes with a short-lived complex. For `O=P(O)(O)O[C@H]1[C@H](OP(=O)(O)O)[C@@H](OP(=O)(O)O)[C@H](OP(=O)(O)O)[C@@H](OP(=O)(O)O)[C@H]1OP(=O)(O)O` [IP6, myo-inositol hexakisphosphate], the Kd at AvrA [1] is 5180 nM; on TcdB CPD it was 1920 nM; at AvrA [3] (K d, AvrA, ITC, 20 °C, mean (SD)), 139 nM. Further, in the data set on VopA, the “Maximal ΔTM” value worked out at 12.4 °C. For the same compound, in data set [2], the “CaCl2 concentration that induces precipitation (X0)” value is listed as 4 mM. Besides, the dissociation rate constant (koff) was 0.0409 s⁻¹ on TcdB CPD and 0.00171 s⁻¹ at AvrA [3]. For the same compound, the ΔH at TcdB CPD (TcdB CPD, ITC, 20 °C, mean (SD)) is listed as −22.94 (0.05) kcal mol^−1; on AvrA [3] (AvrA, ITC, 20 °C, mean (SD)), −21.09 (0.12) kcal mol^−1. Moreover, the “stability in the presence of phytase-4” value in the data set on phytase-4 is given as “hydrolysed within the first hour”. The net charge in data set [4] is given as −8.
